# In US20240197695A1, “COMPOUND FOR PREVENTION OR TREATMENT OF KIDNEY DISEASE” (ONCOCROSS CO.,LTD, priority 2021, published 2024):
# Marks after values point to notes of the source that are not given here.
# What was measured:
# Format in all cases: in vivo, mice (C57BL/6)
# [1] = Body weights of mice in diabetic nephrosis model; conditions: 50 mg/kg/day oral
# Description: (§1) STZ (Sigma-aldrich, S0130, 40 mg/kg b.w., in 0.1 M citrate buffer pH 4.5) was intraperitoneally administered to 9-week-old male mice (C57BL/6) once/1 day for 5 days to perform a first disease induction. After 7 weeks of the first induction, a second induction was performed using the same method as the first induction. For 5 days of an STZ administration period for the first induction, 10% sucrose was administered as drinking water. In addition, after 14 days of the second administration, blood glucose levels were confirmed to confirm the induction rate, and the induced animals were separated into groups. Experimental substances (R)-4-{(R)-1-[7-(3,4,5-trimethoxy-phenyl)-[1,6] naphthyridin-5-yloxy]-ethyl}pyrrolidin-2-one (BI-1002494) and cromolyn (OC-101) were administered orally into the stomach at 10 mL/kg using an administration syringe (sonde) before 16:00 daily for 12 weeks at a frequency of 7 days/week at doses shown in Table 1 below, and dexamethasone was orally administered as a positive control substance.
# [2] = system: diabetic nephrosis animal models; assay: Changes in blood glucose levels (tail vein, blood glucose level meter); conditions: 50 mg/kg/day oral
# Description: as §1
# Before disease induction, excluding week 9 of administration of experimental substances to mice in each group of Example 1 above, after 2 weeks after the first induction (based on a first administration date), and after 6 weeks and 2 weeks of the second induction (based on the first administration date), blood was collected from the tail vein and blood glucose levels were measured using a blood glucose level meter (Accu-Check, Roche), and fasting was performed for 4 hours from 9:30 a.m. to 1:30.
# [3] = Drinking water intake of mice in diabetic nephrosis model; parameters: unit not given here; conditions: 50 mg/kg/day oral
# Description: as §1
# [4] = Feed intake of mice in diabetic nephrosis model; parameters: Feed intake, Mean: unit not given here; conditions: 50 mg/kg/day oral
# Description: as §1
# [5] = system: diabetic nephrosis animal models; assay: Blood insulin (Mouse Insulin ELISA KIT) and HOMA-IR
# Description: as §1
# (§2) After the observation period for mice of each group in Example 1 was terminated, all surviving animals were fasted in the same manner as when measuring blood glucose levels, and then anesthetized by inhaling isoflurane, and blood was collected from the abdominal vena cava through laparotomy. After the blood collection was completed, the veins and arteries were cut under anesthesia and exsanguinated. The collected blood was left at room temperature for 30 minutes or more and then centrifuged at 3,000 rpm for 20 minutes. Thereafter, glucose, Blood urea nitrogen (BUN), and creatinine were analyzed using an automated blood biochemistry analyzer (Hitachi 3100, Hitachi Co. Ltd., Japan). Indoxyl sulfate (a substance that was mainly produced in the intestines to cause renal injury, and a substance that caused end-stage renal failure by advancing renal function damage in patients with renal failure during hemodialysis) was analyzed using LC MS/MS. In addition, blood insulin was analyzed according to a method represented by a commercial Mouse Insulin ELISA KIT (#AKRIN-011T, Sibayagi Co. Ltd., Japan).
# [6] = system: diabetic nephrosis animal models; assay: Histopathological change (H&E) in liver, kidney, pancreas; conditions: G6/G7, 50 mg/kg oral; count in group of 10 animals
# Description: as §1
# At the end of the observation period, the mice in each group of Example 1 were confirmed to be dead, and the liver, kidney, and pancreas were extracted and fixed with 10% neutral buffered formalin (NBF) in at least 20 times the tissue volume. The fixed tissue was sectioned to a thickness of approximately 4 mm and then produced into a paraffin block through general tissue processing and embedding processes. Thereafter, the tissue was sectioned to a thickness of 4 μm using a rotary microtome, and then H&E staining was performed, and histopathological changes were observed.
# [7] = system: diabetic nephrosis animal models; assay: Blood indoxyl sulfate by LC MS/MS; conditions: 50 mg/kg/day oral, after observation period, fasted
# Description: as §1, §2
# [8] = system: diabetic nephrosis animal models
# Description: as §1, §2
# [9] = 50 mg/kg/day oral, after observation period, fasted
smiles,measurement,setting,value
"O=C(O)c1cc(=O)c2c(OCC(O)COc3cccc4oc(C(=O)O)cc(=O)c34)cccc2o1 [OC-101, cromolyn, reference compound]","Body weight, Mean",[1]; week 0,23.9 g
same,"Body weight, Mean",[1]; week 1,23.4 g
same,"Body weight, Mean",[1]; week 2,23.5 g
same,"Body weight, Mean",[1]; week 3,23.3 g
same,"Body weight, Mean",[1]; week 4,23.5 g
same,"Body weight, Mean",[1]; week 5,23.4 g
same,"Body weight, Mean",[1]; week 6,23.5 g
same,"Body weight, Mean",[1]; week 7,23.4 g
same,"Body weight, Mean",[1]; week 8,23.2 g
same,"Body weight, Mean",[1]; week 10,23 g
same,"Blood glucose level, Mean","[2]; week 0, 4 h fasting, in mg/dL (unit assumed)",300.9
same,"Blood glucose level, Mean","[2]; week 2, 4 h fasting, in mg/dL (unit assumed)",336.6
same,"Blood glucose level, Mean","[2]; week 4, 4 h fasting",271.1^#
same,"Blood glucose level, Mean","[2]; week 6, 4 h fasting",295.5^#
same,"Blood glucose level, Mean","[2]; week 8, 4 h fasting",259.9^#
same,"Blood glucose level, Mean","[2]; week 10, 4 h fasting",247.8^#
same,"Drinking water intake, Mean",[3]; week 0,6.78
same,"Drinking water intake, Mean",[3]; week 1,8.11
same,"Drinking water intake, Mean",[3]; week 2,7.68
same,"Drinking water intake, Mean",[3]; week 3,6.99
same,"Drinking water intake, Mean",[3]; week 4,7.23
same,"Drinking water intake, Mean",[3]; week 5,6.78
same,"Drinking water intake, Mean",[3]; week 6,7.80
same,"Drinking water intake, Mean",[3]; week 7,7.06
same,"Drinking water intake, Mean",[3]; week 8,7.17
same,"Drinking water intake, Mean",[3]; week 9,7.09
same,"Drinking water intake, Mean",[3]; week 10,6.76
same,"Feed intake, Mean",[4]; week 0,6.23
same,"Feed intake, Mean",[4]; week 1,5.98
same,"Feed intake, Mean",[4]; week 2,6.35
same,"Feed intake, Mean",[4]; week 3,5.47
same,"Feed intake, Mean",[4]; week 4,4.28
same,"Feed intake, Mean",[4]; week 5,4.51
same,"Feed intake, Mean",[4]; week 6,4.29
same,"Feed intake, Mean",[4]; week 7,4.41
same,"Feed intake, Mean",[4]; week 8,4.37
same,"Feed intake, Mean",[4]; week 9,4.51
same,"Feed intake, Mean",[4]; week 10,4.28
same,HOMA-IR compared to disease control group,[5]; 50 mg/kg administered group,decreased statistically significantly
same,"HOMA-IR, Mean",[5]; [9],8.8^#
same,"Insulin, Mean",[5]; [9],0.5 ng/mL
same,Kidney: Medullar apoptosis,[6],0
same,Kidney: Medullar mineralization,[6],1
same,Kidney: NHL,[6],8
same,Kidney: bowman's capsule hyperplasia,[6],1
same,Kidney: pappillary mineralization,[6],0
same,Liver: Apoptosis,[6],2
same,Liver: Cytoplasmic glycogen,[6],0
same,Liver: Eosinophlic focus of cellular alteration,[6],1
same,Liver: Mononuclear cell infiltrate,[6],3
same,Liver: NHL,[6],5
same,Pancrease: Apoptosis,[6],0
same,Pancrease: NHL,[6],6
same,Pancrease: islet degeneration,[6],2
same,Pancrease: islet hypertrophy,[6],2
same,"Pancrease: islet, mononuclear cell infillitrate",[6],1
same,"Indoxyl sulfate, Mean",[7],2.0 µg/mL
same,GLU compared to disease control group,[8]; 50 mg/kg administered group,decreased statistically significantly
same,"CRE, Mean",[8]; [9],0.1 mg/dL
same,"GLU, Mean",[8]; [9],282.6^# mg/dL
same,"T-CHO, Mean",[8]; [9],139.3 mg/dL
